Laboratory results from US10995177B2 (priority 2018, dated 2021).

Legend:
K. pneumoniae 9170 [1] = experiment: Resistance development by serial passaging at sub-lethal concentrations; assay type: cell-based, Klebsiella pneumoniae
Description: To test bacterial resistance and resistance prevention, a sub-lethal dose (so as to not kill all bacteria) of the respective antimicrobials was repeatedly applied to K. pneumoniae samples for 24 hours at each passage, wherein the bacteria were allowed to replicate and/or mutate. MIC values of the respective antimicrobials were then measured after each repetition to monitor MIC changes. An increase in MIC value indicates development of resistance in the bacteria. In particular, samples of K. pneumoniae 9170 bacteria were first exposed to the respective antimicrobials (e.g., All polymers having Structures I, IV and V, imipenem and levofloxacin) for the determination of MICs as described above. Subsequently, 50 μL of bacteria from wells of 0.5×MIC were harvested and grown overnight, and then subjected to MIC determination for up to 20 similar serial passages (e.g., 20 single applications once a day for 20 days).
Unfortunately, antibiotic resistance has raised a global concern over the past few years.

K. pneumoniae 9170 [2] = experiment: In vivo efficacy (ED50/ED95) in bacteria-caused lung infection mouse model; design: species or system mice; conditions: Klebsiella pneumoniae, 9170, ip
Description: In this regard, immunosuppressed mice (7 weeks old) were used for the following in vivo studies. Immunosuppression was induced by intraperitoneal injection of 200 mg/kg cyclophosphamide 4 days prior to infection. The mice were anesthetized by intraperitoneal injection of 1% pentobarbital (40 mg/kg, Sigma). The mice were then infected with K. pneumoniae 9170 to determine the minimum lethal dose for subsequent effective does and efficacy testing. Overnight cultures of K. pneumoniae 9170 were harvested and suspended in PBS. Subsequently, the cyclophosphamide-pretreated mice were intranasally injected with 25.0 μL of the bacterial suspension at designated doses (e.g., 1.0×10^8, 2.5×10^8, 5×10^8, 1.0×10^9, 2.0×10^9 CFU/mL, six mice per group). The minimum lethal dose (LD), the lowest concentration sufficient to cause 100% mortality, was determined from the survival rate of mice at 5 days post-infection by the BLISS method.
The effective doses ED50 and ED95 doses of the respective polymers and imipenem for comparison, were tested using a bacteria-caused lung infection mouse model as follows. Firstly, a bacterial suspension with the minimum lethal dose (25.0 μL) was introduced to the above described cyclophosphamide-pretreated mice intranasally. […] The number of surviving mice in each group was recorded for 5.0 day to estimate ED50 and ED95 via the BLISS method.

[3] = tested on: MDR clinical isolates of K. pneumoniae, E. coli, A. baumannii, P. aeruginosa, E. faecium and MRSA; experiment: MIC by broth microdilution against different types and strains of MDR clinically isolated bacteria; assay type: cell-based; conditions: Gram-negative and Gram-positive MDR clinical isolates
Description: The MICs of the guanidinium functionalized polymers and the respective antibiotics against the clinical isolates were measured via the broth microdilution method. In accordance with the broth microdilution method, the MDR microbes including one or more strains of K. pneumoniae, E. coli, A. baumannii, P. aeruginosa, E. coli, E. faecium, and MRSA were harvested in mid exponential growth phase after grown overnight in Mueller-Hinton (MH) agar plates at 37° C. The antimicrobial agents were prepared in MH broth (MHB) at various concentrations. The bacteria suspensions were then diluted with phosphate-buffer saline (PBS, PH 7.4) to adjust the turbidity approximately to the Standard McFarland 0.6, which corresponds to the concentration of 1×10^8 colony-forming unit (CFU)/mL, after which the bacteria suspension was further diluted by 100-fold with MHB (1×10^6 CFU/mL). Subsequently, equal volumes (100 microliters (μL)) of bacterial suspension and agent solution prepared previously were mixed in each well of a 96-well plate and incubated for 18 h at 37° C. Broth containing bacteria alone was employed as the negative control, and each MIC was tested in triplicate.
To facilitate comparison, imipenem and vancomycin, typical first-line therapies against Gram-negative and Gram-positive pathogens, were employed as standards or control antibiotics.

Compound	increase of MIC (K. pneumoniae 9170 [1]; by the 11th passage) [times]	increase of MIC (K. pneumoniae 9170 [1]; by the 20th passage) [fold]	ED50 (K. pneumoniae 9170 [2]) [mg/kg]	increase of MIC (K. pneumoniae 9170 [1]; by the 7th passage) [times]	spectrum of antibacterial activity [3]
C[C@@H](O)[C@H]1C(=O)N2C(C(=O)O)=C(SCCN=CN)C[C@H]12 [imipenem]	2	4	5.93	–	–
C[C@H]1COc2c(N3CCN(C)CC3)c(F)cc3c(=O)c(C(=O)O)cn1c23 [levofloxacin]	–	16	–	2	–
CN[C@H](CC(C)C)C(=O)N[C@H]1C(=O)N[C@@H](CC(N)=O)C(=O)N[C@H]2C(=O)N[C@H]3C(=O)N[C@H](C(=O)N[C@H](C(=O)O)c4cc(O)cc(O)c4-c4cc3ccc4O)[C@H](O)c3ccc(c(Cl)c3)Oc3cc2cc(c3O[C@@H]2O[C@H](CO)[C@@H](O)[C@H](O)[C@H]2O[C@H]2C[C@](C)(N)[C@H](O)[C@H](C)O2)Oc2ccc(cc2Cl)[C@H]1O [vancomycin]	–	–	–	–	only demonstrated efficacy against Gram-positive strains
